“And” between values parts separate entries of the source, which are not always exact repeats. Identical values can stand only once. “Also recorded” adds a separate entry of the source. Like-named read-outs stand apart in the source and are kept apart here.
How the values were obtained:
S. mansoni adult worms = assay: S. mansoni adult worm motility screen (WormassayGP2), 72 h; format: cell-based, Schistosoma mansoni; settings: for EC50: Schistosoma mansoni
Summary of the method: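 Seven-week adult S. mansoni worms, perfused from infected mice, were exposed in duplicate (1–3 pairs/well) to […] compound in 0.5% DMSO for 72 h at 37 °C, 5% CO2. Motility was scored by image-based WormassayGP2, and eggs were counted afterwards.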

S. mansoni schistosomula = S. mansoni schistosomula high-throughput phenotype and motility screen (Roboworm), 72 h; format: cell-based, Schistosoma mansoni; settings: for EC50: Schistosoma mansoni
Summary of the method: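 Newly transformed schistosomula (S. mansoni PR-1, mechanically transformed cercariae), 120 per well, exposed to compounds at a single concentration or two-fold titrations for 72 h at 37 °C, 5% CO2.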

S. mansoni miracidia = S. mansoni miracidia to sporocyst transformation screen, 48 h; format: cell-based, Schistosoma mansoni
From the text: Following hepatic portal vein perfusion of TO mice, experimentally infected 7 weeks previously, the mouse livers were collected to isolate parasite eggs. Briefly, the infected tissues were homogenised in double saline solution (1.7% w/v NaCl) using a Waring blender. The homogenates were passed through a 0.45 μm filter to retain egg material and the resulting filtered solution was collected in a volumetric flask. Miracidia hatching was induced by exposure of eggs to light in artificial river water (e.g. Lepple water). The resulting miracidial suspension was collected, washed with Chernin's balanced salt solution (CBSS) and enumerated prior to being used for in vitro miracidia to sporocyst screens, as previously described. […] Each treatment was set up in duplicate and parasites cultured in CBSS with 1% DMSO were set up as negative controls. After 48 h incubation at 26 °C, dead, fully transformed and partially transformed miracidia were enumerated as previously described [[18],[64], [65], [66]].

[1] = test system: Adult S. haematobium worms; assay: In vitro screening of S. haematobium adults at 100 nM (WormAssay motility, descriptors, severity score); format: cell-based, Schistosoma haematobium; settings: for Effect on S. haematobium adult worms: 5, 24, 48 and 72 h; for SEVERITY SCORES 5 h / SEVERITY SCORES 24 h / SEVERITY SCORES 48 h / SEVERITY SCORES 72 h: max = 4, one line per replicate
Protocol: (§1) For each species, parasite recovery involved reverse perfusion of the hepatic portal and mesenteric system using DMEM (Fisher Scientific). Parasites were washed six times with Basch 169 medium supplemented with 100 U/ml penicillin and 100 μg/ml streptomycin before manually distributing approximately 5 males per well (on occasion 1 or 2 females might also be present) of a 24-well plate (Corning Costar 3524). […] The next morning, a final concentration of 100 nM compound (in 1 μL DMSO) was added to each well and the final volume made up to 2 ml with Basch 169 medium supplemented with antibiotics and FBS. Each compound was tested in triplicate (except for some instances tested in duplicate). […] The phenotypic characterisation of compound effects focused on male worms due to the greater range of their motility characteristics that include flexing, bending, stretching, sucker walking and adherence, compared to the more sedentary female worms. In addition to descriptors, WormAssay, as adapted for the schistosome, was used to measure average worm motility per well [72, 73].

[2] = test system: adult S. japonicum male worms; assay: In vitro screening of S. japonicum adults at 100 nM (WormAssay motility, descriptors, severity score); format: cell-based, Schistosoma japonicum; parameters: key to DESCRIPTORS 48 h / DESCRIPTORS 72 h: Dark = dark; S = Slow; S-uncoord = uncoordinated slow movements; O-uncoord = uncoordinated fast movements; On sides = male worms are not adhering to dish with ventral sucker; Shrunk = worms are not flexing and are smaller than usual; Teg damage = outer surface (tegument of the worm) is damaged; Deg= degenerating; D = Dead; settings: for Effect on S. japonicum adult male worms: 5, 24, 48 and 72 h; for SEVERITY SCORES 5 h / SEVERITY SCORES 24 h / SEVERITY SCORES 48 h / SEVERITY SCORES 72 h: max = 4, one line per replicate
Protocol: as §1

TK6 cells = assay: Genotoxicity assessment in TK6 cells (micronucleus, ɣH2AX, p53, cell cycle)
Protocol: The in vitro micronucleus (MN) assay was employed for the assessment of chromosome damage. Human, p53 competent, lymphoblastoid TK6 cells (Cat. No. 95111735) were used in this study and obtained from the European Collection of Authenticated Cell Cultures (ECACC)). RPMI 1640 (Gibco, Paisley, UK) culture media supplemented with 1% penicillin/streptomycin (100 U/ml Penicillin and 100 μg/ml Streptomycin), 10% heat inactivated horse serum (Gibco, Paisley, UK), 1% L-glutamine (Gibco, Paisley, UK) and hygromycine-B was used for TK6 cell culture. Cells were incubated at 37 °C in a humidified atmosphere of 5% (v/v) CO2.

[3] = Table 4, Series A, read-out: Anti-schistosomal activity EC50 Adult (nM) Motility
[4] = Table 2, 72 h, titrations 0.0095–5 μM, WormassayGP2, read-out: Activity on adult worms (EC50, μM - 72 h) Motility
[5] = 72 h, Table 2, average of phenotype and motility EC50, 72 h, read-out: Activity on schistosomula (EC50, μM - 72 h) Average
[6] = 72 h, Table 2, motility, 72 h, three replicate titrations (0.313–10 μM), read-out: Activity on schistosomula (EC50, μM - 72 h) M
[7] = 72 h, Table 2, phenotype, 72 h, three replicate titrations (0.313–10 μM), read-out: Activity on schistosomula (EC50, μM - 72 h) P
[8] = Table 4, Series A, read-out: Anti-schistosomal activity EC50 Schistosomula (μM) Motility
[9] = Table 4, Series A, read-out: Anti-schistosomal activity EC50 Schistosomula (μM) Phenotype
[10] = S. japonicum, one line per replicate

## O=[N+]([O-])c1ccc2nc(Nc3cc(C(F)(F)F)ccc3F)c(Nc3cc(C(F)(F)F)ccc3F)nc2c1 [Compound 33, N2, N3-bis(2-fluoro-5-(trifluoromethyl)phenyl)-6-nitroquinoxaline-2,3-diamine]
S. mansoni adult worms; [3]
  EC50: 5.6 nM
S. mansoni adult worms; [4]
  EC50: 5.6 nM
S. mansoni schistosomula; [5]
  EC50: 0.15 µM
S. mansoni schistosomula; [6]
  EC50: 0.15 µM
S. mansoni schistosomula; [7]
  EC50: 0.15 µM
S. mansoni schistosomula; 72 h, Table S7, motility, 95% CI in brackets, read-out: Activity on schistosomula (EC50, µM - 72 h) (95% CI) M
  EC50: 0.15 µM
S. mansoni schistosomula; 72 h, Table S7, phenotype, 95% CI in brackets, read-out: Activity on schistosomula (EC50, µM - 72 h) (95% CI) P
  EC50: 0.15 µM
S. mansoni schistosomula; [8]
  EC50: 0.15 µM
S. mansoni schistosomula; [9]
  EC50: 0.15 µM
S. mansoni miracidia; 0.5 μM, lowest concentration tested
  Effect on miracidia at 0.5 μM: parasite death
[1]
  Onset time on S. haematobium: ≤ 24 h
  Effect on S. haematobium adult worms: best activity
[1]; S. haematobium
  SEVERITY SCORES 5 h: 0
[1]; S. haematobium, 24 h
  SEVERITY SCORES 24 h: 2
[1]; S. haematobium, 24 h, one line per replicate
  DESCRIPTORS 24 h: S, on sides; also recorded: S, onsides
[1]; S. haematobium, 48 h
  SEVERITY SCORES 48 h: 3
[1]; S. haematobium, 48 h, one line per replicate
  DESCRIPTORS 48 h: S, dark on sides
[1]; S. haematobium, 72 h
  SEVERITY SCORES 72 h: 4
[1]; S. haematobium, 72 h, one line per replicate
  DESCRIPTORS 72 h: S, deg, on sides
[2]
  Onset time on S. japonicum: ≤ 24 h
  Effect on S. japonicum adult male worms: essentially lethal
[2]; S. japonicum
  SEVERITY SCORES 5 h: 0
  SEVERITY SCORES 48 h: 4
  SEVERITY SCORES 72 h: 4
[2]; S. japonicum, 24 h
  SEVERITY SCORES 24 h: 0
[2]; S. japonicum, 24 h, one line per replicate
  DESCRIPTORS 24 h: Dark, S, on sides
[2]; [10]
  DESCRIPTORS 48 h: Dying, deg
  DESCRIPTORS 72 h: Dying, D

## O=[N+]([O-])c1ccc2nc(Nc3ccc(Cl)c(Cl)c3)c(Nc3ccc(Cl)c(Cl)c3)nc2c1 [Compound 22, N^2, N^3-bis(3,4-dichlorophenyl)-6-nitroquinoxaline-2,3-diamine]
S. mansoni adult worms; 3.15 μM, lowest concentration tested
  Effect on adult worm motility at 3.15 μM: complete cessation of worm mobility; also recorded: completely inhibited
S. mansoni adult worms; 12.5 and 6.25 μM
  Effect on adult worm motility at 12.5 and 6.25 μM: particularly active
S. mansoni adult worms; Table 3, read-out: Anti-schistosomal activity EC50 (μM) Adult Motility
  EC50: 85 nM
S. mansoni adult worms; [3]
  EC50: 84.7 nM
S. mansoni adult worms; [4]
  EC50: 84.7 nM
S. mansoni adult worms; commercially sourced batch (c22), Fig. S7, read-out: EC50 on adult worms, original commercially sourced compound
  EC50: 68.5 nM
S. mansoni adult worms; re-synthesised batch (rs22), Fig. S7, read-out: EC50 on adult worms, re-synthesised compound
  EC50: 73.1 nM
S. mansoni schistosomula; 10 μM, 72 h
  Activity on schistosomula in the primary screen at 10 μM: retained activity
S. mansoni schistosomula; 72 h, Table 1, 72 h, two dose response titrations (0.313–10 μM), 95% CI in brackets, read-out: Activity on schistosomula (EC50, μM - 72 h) Motility
  EC50: 0.38 µM
S. mansoni schistosomula; 72 h, Table 1, 72 h, two dose response titrations (0.313–10 μM), 95% CI in brackets, read-out: Activity on schistosomula (EC50, μM - 72 h) Phenotype
  EC50: 0.4 µM
S. mansoni schistosomula; 72 h, Table 1, mean of phenotype and motility EC50, 72 h, read-out: Activity on schistosomula (EC50, μM - 72 h) Average
  EC50: 0.39 µM
S. mansoni schistosomula; [5]
  EC50: 0.44 µM
S. mansoni schistosomula; [6]
  EC50: 0.42 µM
S. mansoni schistosomula; [7]
  EC50: 0.47 µM
S. mansoni schistosomula; Table 3, read-out: Anti-schistosomal activity EC50 (μM) Schistosomula Motility
  EC50: 0.42 µM
S. mansoni schistosomula; Table 3, read-out: Anti-schistosomal activity EC50 (μM) Schistosomula Phenotype
  EC50: 0.47 µM
S. mansoni schistosomula; [8]
  EC50: 0.42 µM
S. mansoni schistosomula; [9]
  EC50: 0.47 µM
S. mansoni schistosomula; Table 5, Series C, read-out: Anti-schistosomal activity EC50 Schistosomula (μM) Motility
  EC50: 0.42 µM
S. mansoni schistosomula; Table 5, Series C, read-out: Anti-schistosomal activity EC50 Schistosomula (μM) Phenotype
  EC50: 0.47 µM
S. mansoni schistosomula; commercially sourced batch (c22), Fig. S7, read-out: EC50 on schistosomula, original commercially sourced compound
  EC50: 0.61 µM
S. mansoni schistosomula; re-synthesised batch (rs22), Fig. S7, read-out: EC50 on schistosomula, re-synthesised compound
  EC50: 0.51 µM
S. mansoni miracidia; 5 μM in 1% DMSO
  Effect on miracidia at 5 μM: not lethal
S. mansoni miracidia; 5 μM, 48 h
  Reduction of miracidia to sporocyst transformation at 5 μM compared to DMSO: 50%
S. mansoni miracidia; 2 and 0.5 μM, 48 h
  Miracidial transformation inhibition at 2 and 0.5 μM: about 20%
S. mansoni miracidia; 10 and 50 μM, 48 h
  Effect on miracidia at 10 and 50 μM: lethal
[1]
  Effect on S. haematobium adult worms: mainly inactive
[1]; S. haematobium
  SEVERITY SCORES 5 h: 0
[1]; S. haematobium, 24 h
  SEVERITY SCORES 24 h: 0
[1]; S. haematobium, 48 h
  SEVERITY SCORES 48 h: 0
[1]; S. haematobium, 72 h
  SEVERITY SCORES 72 h: 0
TK6 cells
  Number of micronuclei (MNi) compared to DMSO treated cells: did not change significantly
TK6 cells; 2 and 4 μM
  Cell-cycle analysis: G2/M phase arrest
TK6 cells; TK6 cells, 0.5, 2 and 4 μM
  Genotoxicity: non-genotoxic; also recorded: does not induce genotoxicity
[2]
  Effect on S. japonicum adult male worms: decreased motility starting at 48 h
[2]; S. japonicum
  SEVERITY SCORES 5 h: 0
  SEVERITY SCORES 48 h: 1 and 2
  SEVERITY SCORES 72 h: 2
[2]; S. japonicum, 24 h
  SEVERITY SCORES 24 h: 0
[2]; [10]
  DESCRIPTORS 48 h: S and S, on sides
  DESCRIPTORS 72 h: S+, on sides

Source: article PMC8626775, “Anti-schistosomal activities of quinoxaline-containing compounds: From hit identification to lead optimisation” (European Journal of Medicinal Chemistry, 2021)
